Experimental data reported in ChEMBL document CHEMBL4610046, “Diacyl disulfides as the precursors for hydrogen persulfide (H2S2)” (Bioorg Med Chem Lett, 2020).
Active and inactive are the calls of the source. The calls are words filed in the database; no cut-off is given here.

Tests used:
[1] = Stability of compound in DCM incubated at room temperature; format: physicochemical
[2] = Stability of compound in THF incubated at room temperature; format: physicochemical
[3] = Stability of compound assessed as compound decomposition at 4 degree C measured after 3 weeks; format: physicochemical; conditions: 504 h
[4] = Drug metabolism in PBS buffer assessed as hydrolysis at pH 7.4 in presence of 25 uM CTAB by DSP-3 probe based fluorescence assay; format: physicochemical
PC-3 [5] = experiment: Induction of H2S2 generation in human PC3 cells at 100 uM measured after 30 mins by DSP-3 probe based fluorescence assay; format: functional, cell-based
PC-3 [6] = experiment: Induction of H2S generation in human PC3 cells at 100 uM pretreated with thiol blocking reagent NEM for 30 mins followed by lysine treatment for 20 mins and subsequent compound treatment after 30 mins by DSP-3 probe based fluorescence assay; format: functional, cell-based
HeLa [7] = experiment: Induction of H2S2 generation in human HeLa cells at 100 uM measured after 30 mins by DSP-3 probe based fluorescence assay; format: functional, cell-based
PC-3 [8] = experiment: Induction of H2S2 generation in human PC3 cells at 100 uM pretreated with thiol blocking reagent NEM for 30 mins followed by lysine treatment for 20 mins and subsequent compound treatment after 30 mins by DSP-3 probe based fluorescence assay; format: functional, cell-based
HeLa [9] = experiment: Induction of H2S2 generation in human HeLa cells at 100 uM pretreated with thiol blocking reagent NEM for 30 mins followed by lysine treatment for 20 mins and subsequent compound treatment after 30 mins by DSP-3 probe based fluorescence assay; format: functional, cell-based
[10] = Induction of DPPH reduction by H2S2 generated from parent compound by UV spectrometry; set-up: scale not given: the % may be the effect or the level left
PC-3 [11] = experiment: Induction of H2S generation in human PC3 cells at 100 uM measured after 30 mins by DSP-3 probe based fluorescence assay; format: functional, cell-based
[12] = Cysteine reactivity in human PC3 cells under physiological conditions; format: ADME, cell-based; conditions: pc-3
[13] = GSH reactivity in human PC3 cells under physiological conditions; format: ADME, cell-based; conditions: pc-3
HeLa [14] = experiment: Induction of H2S generation in human HeLa cells at 100 uM measured after 30 mins by DSP-3 probe based fluorescence assay; format: functional, cell-based
HeLa [15] = experiment: Induction of H2S generation in human HeLa cells at 100 uM pretreated with thiol blocking reagent NEM for 30 mins followed by lysine treatment for 20 mins and subsequent compound treatment after 30 mins by DSP-3 probe based fluorescence assay; format: functional, cell-based

| Stability [1] | Stability [2] | Stability [3] | SMILES | Activity [10] | further results |
| --- | --- | --- | --- | --- | --- |
| Stable | Stable | Stable | O=C(Cc1ccccc1)SSC(=O)Cc1ccccc1 | – | – |
| Stable | Stable | Stable | CC(C)(C(=O)SSC(=O)C(C)(C)c1ccccc1)c1ccccc1 | – | Drug metabolism [4]: Metabolite_Notdetected |
| Stable | Stable | Stable | CC(=O)SSC(C)=O | 40% | Activity (PC-3 [5]): Active; Activity (PC-3 [6]): Active; Activity (HeLa [7]): Active; Activity (PC-3 [8]): Active; Activity (HeLa [9]): Active; Activity (PC-3 [11]): Active; Drug metabolism [12]: Active; Drug metabolism [13]: Active; Activity (HeLa [14]): Active; Activity (HeLa [15]): Active |

The next lines start with the compound.

| SMILES | Stability [1] | Stability [2] | Stability [3] | Activity [10] | further results |
| --- | --- | --- | --- | --- | --- |
| CC[Si](CC)(CC)OC(SSC(O[Si](CC)(CC)CC)C(C)C)C(C)C (centres undefined) | – | – | – | 30% | – |
| CC[Si](CC)(CC)OC(S)C(C)C (centres undefined) | – | – | – | 15% | – |
| NCCN | – | – | – | 40% | – |
